# Laboratory results published in patent US9469615B2, “Quinoxalines and AZA-quinoxalines as CRTH2 receptor modulators” (Merck Sharp & Dohme Corp., priority 2010, dated 2016).
# pKi: −log10 of the molar value.
# Biological target: T1, hCRTH2 (Homo sapiens, UniProt Q9Y5Y4)
# T1 construct: expressed in transfected cells; host or cells: HEK (human embryonic kidney) cells expressing hCRTH2; membrane preparation
# T1 sequence (Q9Y5Y4 1-395): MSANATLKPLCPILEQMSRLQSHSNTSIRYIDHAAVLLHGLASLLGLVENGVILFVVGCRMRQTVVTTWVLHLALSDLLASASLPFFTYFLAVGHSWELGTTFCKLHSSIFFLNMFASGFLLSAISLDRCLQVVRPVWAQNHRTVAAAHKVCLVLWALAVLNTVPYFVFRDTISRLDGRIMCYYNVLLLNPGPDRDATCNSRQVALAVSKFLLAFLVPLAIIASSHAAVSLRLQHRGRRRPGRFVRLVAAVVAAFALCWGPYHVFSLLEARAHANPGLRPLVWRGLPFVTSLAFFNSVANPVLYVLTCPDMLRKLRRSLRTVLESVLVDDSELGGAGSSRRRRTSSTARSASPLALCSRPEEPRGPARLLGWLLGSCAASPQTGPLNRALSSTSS
# Assay: Radioligand binding assay ([3H]PGD2 competition, HEK-hCRTH2 membranes)
# Details: [3H]PGD2 competition, Table B
# Procedure, shortened: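 Filter-bound radioactivity was counted by scintillation after 60 min incubations at room temperature. Membranes (8-20 μg) from HEK cells expressing hCRTH2 competed test ligands against 3.0 nM [3H]PGD2 in Tris-HCl pH 7.4 buffer with EDTA and 2 mM MnCl2; 10 μM PGD2 set non-specific binding.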
row,pKi,SMILES
1,7.70 to 8.68,"O=C(O)CCCCc1nc2cc(C(=O)N3CCOC[C@H]3c3ccccc3)ccc2nc1-c1ccc(Cl)cc1 [compound 661, (R)-5-(3-(4-chlorophenyl)-7-(3-phenylmorphohne-4-carbonyl)quinoxalin-2-yl)pentanoic acid]"
2,6.70 to 7.70,"O=C(O)CCCCc1nc2cc(C(=O)N3CCCC3c3ccccn3)ccc2nc1-c1ccc(Cl)cc1 (stereo not drawn) [compound 662, 5-(3-(4-chlorophenyl)-7-(2-(pyridin-2-yl)pyrrolidine-1-carbonyl)quinoxalin-2-yl)pentanoic acid]"
3,7.70 to 8.68,"CC1Cc2ccccc2CCN1C(=O)c1ccc2nc(-c3ccc(Cl)cc3)c(CCCCC(=O)O)nc2c1 (stereo not drawn) [compound 663, 5-(3-(4-chlorophenyl)-7-(2-methyl-2,3,4,5-tetrahydro-1H-benzo[d]azepine-3-carbonyl)quinoxalin-2-yl)pentanoic acid]"
4,7.70 to 8.68,"Cc1ccc(CN2CCN(C(=O)c3ccc4nc(-c5ccc(Cl)cc5)c(CCCCC(=O)O)nc4c3)CC2)cc1 [compound 664, 5-(3-(4-chlorophenyl)-7-(4-(4-methylbenzyl)piperazine-1-carbonyl)quinoxalin-2-yl)pentanoic acid]"
5,7.70 to 8.68,"Cc1ccc(N2CCN(C(=O)c3ccc4nc(-c5ccc(Cl)cc5)c(CCCCC(=O)O)nc4c3)CC2)cc1 [compound 665, 5-(3-(4-chlorophenyl)-7-(4-(p-tolyl)piperazine-1-carbonyl)quinoxalin-2-yl)pentanoic acid]"
6,7.70 to 8.68,"CN1CCN(C(=O)c2ccc3nc(-c4ccc(Cl)cc4)c(CCCCC(=O)O)nc3c2)C(c2ccccc2)C1 (stereo not drawn) [compound 666, 5-(3-(4-chlorophenyl)-7-(4-methyl-2-phenylpiperazine-1-carbonyl)quinoxalin-2-yl)pentanoic acid]"
7,7.70 to 8.68,"O=C(O)CCCCc1nc2cc(C(=O)N3CCN(Cc4cccc(F)c4)CC3)ccc2nc1-c1ccc(Cl)cc1 [compound 667, 5-(3-(4-chlorophenyl)-7-(4-(3-fluorobenzyl)piperazine-1-carbonyl)quinoxalin-2-yl)pentanoic acid]"
8,6.70 to 7.70,"O=C(O)CCCCc1nc2cc(C(=O)N3CCn4cc(C(F)(F)F)nc4C3)ccc2nc1-c1ccc(Cl)cc1 [compound 668, 5-(3-(4-chlorophertyl)-7-(2-(trifluoromethyl)-5,6,7,8-tetrahydroimidazo[1,2-a]pyrazine-7-carbonyl)quinoxalin-2-yl)pentanoic acid]"
9,7.70 to 8.68,"O=C(O)CCCCc1nc2cc(C(=O)N3CCN(c4ccc(Cl)cn4)CC3)ccc2nc1-c1ccc(Cl)cc1 [compound 669, 5-(3-(4-chlorophenyl)-7-(4-(5-chloropyridin-2-yl)piperazine-1-carbonyl)quinoxalin-2-yl)pentanoic acid]"
10,7.70 to 8.68,"Cc1nc(CN2CCN(C(=O)c3ccc4nc(-c5ccc(Cl)cc5)c(CCCCC(=O)O)nc4c3)CC2)cs1 [compound 670, 5-(3-(4-chlorophenyl)-7-(4-((2-methylthiazol-4-yl)methyl)piperazine-1-carbonyl)quinoxalin-2-yl)pentanoic acid]"
11,6.70 to 7.70,"Cn1cc(N2CCN(C(=O)c3ccc4nc(-c5ccc(Cl)cc5)c(CCCCC(=O)O)nc4c3)CC2)cn1 [compound 671, 5-(3-(4-chlorophenyl)-7-(4-(1-methyl-1H-pyrazol-4-yl)piperazine-1-carbonyl)quinoxalin-2-yl)pentanoic acid]"
12,6.70 to 7.70,"C[C@@H]1CN(C(=O)c2ccc3nc(-c4ccc(Cl)cc4)c(CCCCC(=O)O)nc3c2)[C@@H](C)CN1c1ccccc1 [compound 672, 5-(3-(4-chlorophenyl)-7-((2S,5R)-2,5-dimethyl-4-phenylpiperazine-1-carbonyl)quinoxalin-2-yl)pentanoic acid]"
13,6.70 to 7.70,"CCc1nnc2n1CCN(C(=O)c1ccc3nc(-c4ccc(Cl)cc4)c(CCCCC(=O)O)nc3c1)C2 [compound 673, 5-(3-(4-chlorophenyl)-7-(3-ethyl-5,6,7,8-tetrahydro-[1,2,4]triazolo[4,3-a]pyrazine-7-carbonyl)quinoxalin-2-yl)pentanoic acid]"
14,7.70 to 8.68,"CN1CCN(C(=O)c2ccc3nc(-c4ccc(Cl)cc4)c(CCCCC(=O)O)nc3c2)CC1c1ccccc1 (stereo not drawn) [compound 674, 5-(3-(4-chlorophenyl)-7-(4-methyl-3-phenylpiperazine-1-carbonyl)quinoxalin-2-yl)pentanoic acid]"
15,7.70 to 8.68,"Cc1nonc1N1CCN(C(=O)c2ccc3nc(-c4ccc(Cl)cc4)c(CCCCC(=O)O)nc3c2)CC1 [compound 675, 5-(3-(4-chlorophenyl)-7-(4-(4-methyl-1,2,5-oxadiazol-3-yl)piperazine-1-carbonyl)quinoxalin-2-yl)pentanoic acid]"
16,7.70 to 8.68,"O=C(O)CCCCc1nc2cc(C(=O)N3CCN(c4ncccc4Cl)CC3)ccc2nc1-c1ccc(Cl)cc1 [compound 676, 5-(3-(4-chlorophenyl)-7-(4-(3-chloropyridin-2-yl)piperazine-1-carbonyl)quinoxalin-2-yl)pentanoic acid]"
17,7.70 to 8.68,"O=C(O)CCCCc1nc2cc(C(=O)N3C[C@@H]4C[C@H]3CN4c3cccc(F)c3)ccc2nc1-c1ccc(Cl)cc1 [compound 677, 5-(3-(4-chlorophenyl)-7-((1S,4S)-5-(3-fluorophenyl)-2,5-diazabicyclo[2.2.1]heptane-2-carbonyl)quinoxalin-2-yl)pentanoic acid]"
18,7.70 to 8.68,"O=C(O)CCCCc1nc2cc(C(=O)N3CCN(C4CCCCC4)C(=O)C3)ccc2nc1-c1ccc(Cl)cc1 [compound 678, 5-(3-(4-chlorophenyl)-7-(4-cyclohexyl-3-oxo-piperazine-1-carbonyl)quinoxalin-2-yl)pentanoic acid]"
19,7.70 to 8.68,"O=C(O)CCCCc1nc2cc(C(=O)N3CCN(c4cccnc4)CC3)ccc2nc1-c1ccc(Cl)cc1 [compound 679, 5-(3-(4-chlorophenyl)-7-(4-(pyridin-3-y)piperazine-1-carbonyl)quinoxalin-2-yl)pentanoic acid]"
20,7.70 to 8.68,"O=C(O)CCCCc1nc2cc(C(=O)N3C[C@@H]4C[C@H]3CN4c3ccc(F)cc3)ccc2nc1-c1ccc(Cl)cc1 [compound 680, 5-(3-(4-chlorophenyl)-7-((1S,4S)-5-(4-fluorophenyl)-2,5-diazabicyclo[2.2.1]heptane-2-carbonyl)quinoxalin-2-yl)pentanoic acid]"
21,7.70 to 8.68,"Cc1cnc(C)c(N2CCN(C(=O)c3ccc4nc(-c5ccc(Cl)cc5)c(CCCCC(=O)O)nc4c3)CC2)n1 [compound 681, 5-(3-(4-chlorophenyl)-7-(4-(3,6-dimethylpyrazin-2-yl)piperazine-1-carbonyl)quinoxalin-2-yl)pentanoic acid]"
22,6.70 to 7.70,"O=C(O)CCCCc1nc2cc(C(=O)N3CCN(Cc4ccncc4)CC3)ccc2nc1-c1ccc(Cl)cc1 [compound 682, 5-(3-(4-chlorophenyl)-7-(4-(pyridin-4-ylmethyl)piperazine-1-carbonyl)quinoxalin-2-yl)pentanoic acid]"
23,7.70 to 8.68,"Cc1cnccc1N1CCN(C(=O)c2ccc3nc(-c4ccc(Cl)cc4)c(CCCCC(=O)O)nc3c2)CC1 [compound 683, 5-(3-(4-chlorophenyl)-7-(4-(3-methylpyridin-4-yl)piperazine-1-carbonyl)quinoxalin-2-yl)pentanoic acid]"
24,7.70 to 8.68,"Cc1cc(N2CCN(C(=O)c3ccc4nc(-c5ccc(Cl)cc5)c(CCCCC(=O)O)nc4c3)CC2)sn1 [compound 684, 5-(3-(4-chlorophenyl)-7-(4-(3-methylisothiazol-5-yl)piperazine-1-carbonyl)quinoxalin-2-yl)pentanoic acid]"
25,6.70 to 7.70,"O=C(O)CCCCc1nc2cc(C(=O)N3CCN(c4nnc(C5CC5)o4)CC3)ccc2nc1-c1ccc(Cl)cc1 [compound 685, 5-(3-(4-chlorophenyl)-7-(4-(5-cyclopropyl-1,3,4-oxadiazo1-2-yl)piperazine-1-carbonyl)quinoxalin-2-yl)pentanoic acid]"
26,6.70 to 7.70,"O=C(O)CCCCc1nc2cc(C(=O)N3C[C@@H]4C[C@H]3CN4Cc3ccccc3)ccc2nc1-c1ccc(Cl)cc1 [compound 686, 5-(7-((1S,4S)-5-benzyl-2,5-diazabicyclo[2.2.1]heptane-2-carbonyl)-3-(4-chlorophenyl)quinoxalin-2-yl)pentanoic acid]"
27,7.70 to 8.68,"O=C(O)CCCCc1nc2cc(C(=O)N[C@H](CO)c3ccc(F)cc3)ccc2nc1-c1ccc(Cl)cc1 [compound 687, (S)-5-(3-(4-chlorophenyl)-7-((1-(4-fluorophenyl)-2-hydroxyethyl)carbamoyl)quinoxalin-2-yl) pentanoic acid]"
28,6.70 to 7.70,"O=C(O)CCCCc1nc2cc(C(=O)N[C@H](CO)c3ccc(F)cc3)ccc2nc1-c1ccccc1 [compound 688, (S)-5-(7-((1-(4-fluorophenyl)-2-hydroxyethyl)carbamoyl)-3-phenylquinoxalin-2-yl)pentanoic acid]"
29,7.70 to 8.68,"O=C(O)CCCCc1nc2cc(C(=O)N3CCC(O)(c4ccccc4)C3)ccc2nc1-c1ccc(Cl)cc1 (stereo not drawn) [compound 689, 5-(3-(4-chlorophenyl)-7-(3-hydroxy-3-phenylpyrrolidine-1-carbonyl)quinoxalin-2-yl)pentanoic acid]"
30,7.70 to 8.68,"O=C(O)CCCCc1nc2cc(C(=O)N3CC4CC4(c4ccccc4)C3)ccc2nc1-c1ccc(Cl)cc1 (stereo not drawn) [compound 690, 5-(3-(4-chlorophenyl)-7-(1-phenyl-3-azabicyclo[3.1.0]hexane-3-carbonyl)quinoxalin-2-yl)pentanoic acid]"
